Holding throughout (assay type): cell-based
One test relates to E. coli (8099). In words: minimum inhibitory / bactericidal concentration for E. coli.
The next test deals with S. aureas (ATCC6538). Put plainly: minimum inhibitory / bactericidal concentration for S. aureas.
A further test concerns E. coli. Put plainly: persistent antimicrobial activity of treated glass surface, colony (plate) counting method, E. coli. The protocol:
(§1) The resulting products from the above examples were used for treating a glass surface respectively, a superhydrophilic surface at a contact angle of less than 10° […]. was all obtained. In addition, they were tested for antimicrobial activity and persistent antimicrobial activity using the colony counting method, and the results are shown in table 1.

The next test deals with S. aureas. In words: persistent antimicrobial activity of treated glass surface, colony (plate) counting method, S. aureas. The arrangement: concentration or dose not given beside the values. The protocol:
as §1

≈ marks a conversion by molar mass, not a printed value.

Regarding “(CH3CH2O)2SiCH3(CH2CH3)3^+N(CH3)2(CH2)3SO3^− [Embodiment 2]”, the “minimum bactericidal concentration (MBC)” value in the test with E. coli (8099) and with S. aureas (ATCC6538) was 30 mg/mL each time. The “minimum inhibitory concentration (MIC)” value in the test with E. coli (8099) and in the test on S. aureas (ATCC6538) was 25 mg/mL throughout. For the same compound, the “persistent antimicrobial activity (plate counting method)” value (“persistent antimicrobial activity” below) was 99.9% with E. coli (wash times 0); 99.9% with E. coli (wash times 1); 99.3% in the test with E. coli (wash times 5); 98.9% with E. coli (wash times 10); 98.5% in the test with E. coli (wash times 30); 99.9% in the test with S. aureas (wash times 0). Moreover, the “persistent antimicrobial activity” value with S. aureas (wash times 1) is reported as 99.9%; in the test on S. aureas (wash times 5) it was 99.9%; with S. aureas (wash times 10) it was 99.6%; in the test with S. aureas (wash times 30), 99.0%.

As for `CCO[Si](C)(CCC[N+](C)(C)CC(=O)[O-])OCC` [Embodiment 3, (CH3CH2O)2SiCH3(CH2)3^+N(CH3)2CH2CO2^−], the “minimum bactericidal concentration (MBC)” value in the test on E. coli (8099) and with S. aureas (ATCC6538) was 25 mg/mL (≈ 90.1 mM) in each case. For the same compound, the “minimum inhibitory concentration (MIC)” value in the test on E. coli (8099) and with S. aureas (ATCC6538) was 20 mg/mL (≈ 72.1 mM) in each case. For the same compound, the “persistent antimicrobial activity” value in the test on E. coli (wash times 0) was 99.9%; in the test with E. coli (wash times 1) it was 99.8%; in the test with E. coli (wash times 5) it was 99.2%; in the test with E. coli (wash times 10) it was 97.9%; with E. coli (wash times 30), 97.2%; in the test with S. aureas (wash times 0), 99.9%. Further, the “persistent antimicrobial activity” value in the test on S. aureas (wash times 1) is 99.9%; with S. aureas (wash times 5) it was 99.5%; in the test on S. aureas (wash times 10), 98.2%; in the test with S. aureas (wash times 30) it was 97.6%.

In the case of `CO[Si](CCCNCCNCCCS(=O)(=O)O)(OC)OC` [Embodiment 7, (CH3O)3Si(CH2)3NH(CH2)2^+NH2(CH2)3SO3^−], the “minimum bactericidal concentration (MBC)” value in the test with E. coli (8099) and in the test on S. aureas (ATCC6538) was 30 mg/mL (≈ 87.1 mM) in each case. For the same compound, the “minimum inhibitory concentration (MIC)” value in the test with E. coli (8099) and in the test with S. aureas (ATCC6538) was 25 mg/mL (≈ 72.6 mM) each time. The “persistent antimicrobial activity” value in the test with E. coli (wash times 0) stood at 99.9%; in the test with E. coli (wash times 1), 99.5%; with E. coli (wash times 5) it was 99.1%; in the test on E. coli (wash times 10), 98.6%; in the test with E. coli (wash times 30) it was 98.0%; in the test on S. aureas (wash times 0), 99.9%. In addition, the “persistent antimicrobial activity” value with S. aureas (wash times 1) worked out at 99.8%; in the test on S. aureas (wash times 5), 99.6%; in the test with S. aureas (wash times 10) it was 99.1%; in the test with S. aureas (wash times 30) it was 98.2%.

Regarding `CCO[Si](CCC[N+](C)(C)CCCS(=O)(=O)[O-])(OCC)OCC` [Embodiment 1, (CH3CH2O)3Si(CH2)3^+N(CH3)2(CH2)3SO3^−], the “minimum bactericidal concentration (MBC)” value in the test with E. coli (8099) and in the test with S. aureas (ATCC6538) was 20 mg/mL (≈ 53.8 mM) each time. Moreover, the “minimum inhibitory concentration (MIC)” value in the test with E. coli (8099) and in the test with S. aureas (ATCC6538) was 15 mg/mL (≈ 40.4 mM) in each case. Also, the “persistent antimicrobial activity” value amounted to 99.9% in the test with E. coli (wash times 0); 99.8% in the test on E. coli (wash times 1); 99.5% with E. coli (wash times 5); 99.0% in the test with E. coli (wash times 10); 99.2% in the test on E. coli (wash times 30); 99.9% in the test with S. aureas (wash times 0). In addition, the “persistent antimicrobial activity” value in the test with S. aureas (wash times 1) is 99.9%; in the test with S. aureas (wash times 5), 99.6%; in the test with S. aureas (wash times 10) it was 99.5%; in the test with S. aureas (wash times 30), 99.0%.

On to `CCC[N+](CCC)(CCC[Si](OC)(OC)OC)CCCS(=O)(=O)[O-]` [Embodiment 8, (CH3O)3Si(CH2)3^+N(CH2CH2CH3)2(CH2)3SO3^−], for which the “minimum bactericidal concentration (MBC)” value in the test with E. coli (8099) and in the test on S. aureas (ATCC6538) was 20 mg/mL (≈ 51.9 mM) throughout. Moreover, the “minimum inhibitory concentration (MIC)” value in the test with E. coli (8099) and with S. aureas (ATCC6538) was 15 mg/mL (≈ 38.9 mM) each time. For the same compound, the “persistent antimicrobial activity” value in the test on E. coli (wash times 0) is reported as 99.9%; in the test with E. coli (wash times 1), 99.7%; with E. coli (wash times 5), 99.3%; in the test on E. coli (wash times 10), 98.7%; with E. coli (wash times 30) it was 98.2%; in the test on S. aureas (wash times 0), 99.9%. Also, the “persistent antimicrobial activity” value came out at 99.9% with S. aureas (wash times 1), 99.5% in the test with S. aureas (wash times 5), 98.8% in the test with S. aureas (wash times 10) and 98.5% in the test on S. aureas (wash times 30).

Consider `CC[N+](CC)(CCC[Si](OC)(OC)OC)CCS(=O)(=O)[O-]` [Embodiment 6, (CH3O)3Si(CH2)3^+N(CH2CH3)2(CH2)2SO3^−], for which the “minimum bactericidal concentration (MBC)” value in the test with E. coli (8099) and with S. aureas (ATCC6538) was 25 mg/mL (≈ 72.8 mM) each time. The “minimum inhibitory concentration (MIC)” value in the test on E. coli (8099) and with S. aureas (ATCC6538) was 20 mg/mL (≈ 58.2 mM) each time. The “persistent antimicrobial activity” value in the test with E. coli (wash times 0) stood at 99.9%; in the test on E. coli (wash times 1) it was 99.8%; in the test on E. coli (wash times 5), 99.3%; in the test on E. coli (wash times 10), 97.9%; in the test on E. coli (wash times 30), 97.2%; with S. aureas (wash times 0), 99.9%. Moreover, the “persistent antimicrobial activity” value worked out at 99.9% with S. aureas (wash times 1), 99.5% in the test on S. aureas (wash times 5), 98.2% in the test with S. aureas (wash times 10) and 97.6% with S. aureas (wash times 30).

With `CCO[Si](C)(CCC[N+](C)(C)CCC(=O)[O-])OCC` [Embodiment 4, (CH3CH2O)2SiCH3(CH2)3^+N(CH3)2(CH2)2CO2^−], the “minimum bactericidal concentration (MBC)” value in the test on E. coli (8099) and in the test with S. aureas (ATCC6538) was 20 mg/mL (≈ 68.6 mM) each time. Further, the “minimum inhibitory concentration (MIC)” value in the test with E. coli (8099) and with S. aureas (ATCC6538) was 10 mg/mL (≈ 34.3 mM) each time. Also, the “persistent antimicrobial activity” value with E. coli (wash times 0) worked out at 99.9%; with E. coli (wash times 1) it was 99.8%; in the test with E. coli (wash times 5), 99.0%; in the test on E. coli (wash times 10) it was 98.6%; with E. coli (wash times 30) it was 98.1%; in the test with S. aureas (wash times 0), 99.9%. The “persistent antimicrobial activity” value was 99.9% with S. aureas (wash times 1), 99.6% in the test with S. aureas (wash times 5), 98.9% in the test on S. aureas (wash times 10) and 98.3% in the test with S. aureas (wash times 30).

As to `CC[N+](CC)(CCC[Si](OC)(OC)OC)CCCS(=O)(=O)[O-]` [Embodiment 5, (CH3O)3Si(CH2)3^+N(CH2CH3)2(CH2)3SO3^−], the “minimum bactericidal concentration (MBC)” value in the test with E. coli (8099) and with S. aureas (ATCC6538) was 20 mg/mL (≈ 55.9 mM) each time. Also, the “minimum inhibitory concentration (MIC)” value with E. coli (8099) and with S. aureas (ATCC6538) was 15 mg/mL (≈ 42 mM) in each case. In addition, the “persistent antimicrobial activity” value amounted to 99.9% with E. coli (wash times 0); 99.7% in the test on E. coli (wash times 1); 99.0% with E. coli (wash times 5); 98.7% with E. coli (wash times 10); 98.0% in the test with E. coli (wash times 30); 99.9% with S. aureas (wash times 0). Further, the “persistent antimicrobial activity” value was determined as 99.9% with S. aureas (wash times 1), 99.5% in the test on S. aureas (wash times 5), 98.8% in the test on S. aureas (wash times 10) and 98.2% with S. aureas (wash times 30).

Values taken from US8623843B2, “Antimicrobial compound and preparation thereof” (Shenzhen University, priority 2009, dated 2014).
